In ChEMBL document CHEMBL4706539 (Eur J Med Chem, 2020):
Activity calls are given as the source filed them. The calls are words filed in the database; no cut-off is given here.

Legend:
HaCaT = assay: Cytotoxicity against human HaCat cells assessed as reduction in cell growth incubated for 72 hrs by MTT assay; assay type: cell-based
COLO357 [1] = assay: Induction of cell cycle arrest in human COLO357 cells assessed as accumulation at G1 phase at 5 nM incubated for 48 hrs by RNase/PI staining based flow cytometry analysis (reference value: 72 %); assay type: functional
[2] = Acute toxicity in iv dosed CD-1 mouse assessed as mouse death at 5 mg/kg, iv measured after 16 hrs; assay type: organism-based; conditions: in vivo
PANC-1 = assay: Antiproliferative activity against human PANC-1 cells assessed as reduction in cell growth incubated for 72 hrs by MTT assay; assay type: functional, cell-based; conditions: PANC-1, 72 h
[3] = Acute toxicity in mouse assessed as lethal dose measured after 7 days; conditions: in vivo, time 7 day
SW-620 [4] = assay: Antiproliferative activity against human SW-620 cells assessed as reduction in cell growth incubated for 72 hrs by MTT assay; assay type: functional, cell-based; conditions: SW-620, 72 h
[5] = Acute toxicity in C57BL/6 mouse assessed as mouse death at 5 mg/kg, iv measured after 16 hrs; assay type: organism-based; conditions: in vivo
[6] = Acute toxicity in iv dosed BALB/c mouse assessed as mouse death at 5 mg/kg, iv measured after 16 hrs; assay type: organism-based; conditions: in vivo
[7] = Acute toxicity in iv dosed CBA mouse assessed as mouse death at 5 mg/kg, iv measured after 16 hrs; assay type: organism-based; conditions: in vivo
SW-620 [8] = assay: Induction of cell cycle arrest in human SW-620 cells assessed as accumulation at apoptotic phase at 5 nM incubated for 48 hrs by RNase/PI staining based flow cytometry analysis (reference value: 0.8 %); assay type: functional
Raji = assay: Antiproliferative activity against human Raji cells assessed as reduction in cell growth incubated for 72 hrs by MTT assay; assay type: functional, cell-based
[9] = Acute toxicity in iv dosed A/Sn mouse assessed as mouse death at 5 mg/kg, iv measured after 16 hrs; assay type: organism-based; conditions: in vivo
COLO357 [10] = assay: Induction of cell cycle arrest in human COLO357 cells assessed as accumulation at apoptotic phase at 5 nM incubated for 48 hrs by RNase/PI staining based flow cytometry analysis (reference value: 1.3 %); assay type: functional
SW-620 [11] = assay: Induction of cell cycle arrest in human SW-620 cells assessed as accumulation at G1 phase at 5 nM incubated for 48 hrs by RNase/PI staining based flow cytometry analysis (reference value: 65 %); assay type: functional
HeLa = assay: cells; conditions: Homo sapiens, 72 h
Description: Antiproliferative activity against human HeLa cells assessed as reduction in cell growth incubated for 72 hrs by MTT assay

SW-620 [12] = assay: Induction of cell cycle arrest in human SW-620 cells assessed as accumulation at G2/M phase at 5 nM incubated for 48 hrs by RNase/PI staining based flow cytometry analysis (reference value: 16 %); assay type: functional
COLO357 [13] = assay: Induction of cell cycle arrest in human COLO357 cells assessed as accumulation at G2/M phase at 5 nM incubated for 48 hrs by RNase/PI staining based flow cytometry analysis (reference value: 13 %); assay type: functional
Ovis aries = species: Ovis aries; assay: Inhibition of lamb brain tubulin polymerization assessed as reduction in microtubule assembly at 0.5 to 5 uM incubated for 40 mins at […] by spectrophotometric analysis relative to control; assay type: tissue-based; conditions: dose 0.5-5 µM
Tubulin (Homo sapiens) [14] = target: T1, Tubulin (Homo sapiens) (UniProt P68371+Q9H4B7+P0DPH7+P68366+Q13509+Q71U36+P04350+Q3ZCM7+P07437+P68363+Q9BQE3+Q6PEY2+Q13885+Q9BVA1+Q9BUF5); assay: Inhibition of tubulin assembly in human SW-620 cells assessed as induction of tubulin dissipation at 5 nM incubated for 24 hrs by Hoechst 33342 staining based confocal microscopic analysis; assay type: cell-based
COLO357 [15] = assay: Antiproliferative activity against human COLO357 cells assessed as reduction in cell growth incubated for 72 hrs by MTT assay; assay type: functional, cell-based; conditions: COLO357, 72 h
[16] = Acute toxicity in iv dosed C57BL/6 mouse assessed as lethal dose; assay type: organism-based; conditions: in vivo
Tubulin (Homo sapiens) [17] = target: T1, Tubulin (Homo sapiens); assay: Inhibition of tubulin assembly in human SW-620 cells assessed as disruption of mitotic spindle at 5 nM incubated for 24 hrs by Hoechst 33342 staining based confocal microscopic analysis; assay type: cell-based
Tubulin (Homo sapiens) [18] = target: T1, Tubulin (Homo sapiens); assay: Inhibition of tubulin assembly in human COLO357 cells assessed as disruption of mitotic spindle at 5 nM incubated for 24 hrs by Hoechst 33342 staining based confocal microscopic analysis; assay type: cell-based
Tubulin (Homo sapiens) [19] = target: T1, Tubulin (Homo sapiens); assay: Inhibition of tubulin assembly in human COLO357 cells assessed as induction of tubulin dissipation at 5 nM incubated for 24 hrs by Hoechst 33342 staining based confocal microscopic analysis; assay type: cell-based
Tubulin (Homo sapiens) [20] = target: T1, Tubulin (Homo sapiens); assay: Inhibition of tubulin assembly in human SW-620 cells assessed as induction of chromosome disturbance at 5 nM incubated for 24 hrs by Hoechst 33342 staining based confocal microscopic analysis; assay type: cell-based
Tubulin (Homo sapiens) [21] = target: T1, Tubulin (Homo sapiens); assay: Inhibition of tubulin assembly in human COLO357 cells assessed as induction of chromosome disturbance at 5 nM incubated for 24 hrs by Hoechst 33342 staining based confocal microscopic analysis; assay type: cell-based
[22] = Acute toxicity in C57BL/6 mouse assessed as mouse death at 10 mg/kg, iv; assay type: organism-based; conditions: in vivo
HEK293 = assay: Cytotoxicity against human HEK293 cells assessed as reduction in cell growth incubated for 72 hrs by MTT assay; assay type: cell-based; conditions: HEK293, 72 h

Row | Compound | IC50 (HaCaT) [nM] | IC50 (PANC-1) [nM] | IC50 (SW-620 [4]) [nM] | IC50 (Raji) [nM] | IC50 (HeLa) [nM] | IC50 (COLO357 [15]) [nM] | IC50 (HEK293) [nM] | also measured
1 | COc1cc2c(c(OC)c1OC)-c1ccc(OC)c(=O)cc1[C@@H](NC(C)=O)CC2 [COLCHICINE] | 0.3 | 0.1 | 2.4 | 16 | 1.3 | – | – | Activity (COLO357 [1]): 62%; Activity [2]: Toxic; LD50 at 168 h [3]: 1.6 mg/kg; Activity [5]: Toxic; Activity [6]: Toxic; Activity [7]: Toxic; Activity (SW-620 [8]): 8.1%; Activity [9]: Toxic; Activity (COLO357 [10]): 2%; Activity (SW-620 [11]): 7.4%; Activity (SW-620 [12]): 74%; Activity (COLO357 [13]): 31%
2 | C=C1COc2cc3c(cc21)-c1c(cc(OC)c(OC)c1OC)CC[C@@H]3NC(C)=O | 0.3 | 0.08 | 0.02 | 0.03 | 1.7 | 0.04 | 0.08 | inhibition (Ovis aries): 50%; inhibition (Tubulin (Homo sapiens) [14]): Active; Activity (COLO357 [1]): 18%; LD50 [16]: 10 mg/kg; inhibition (Tubulin (Homo sapiens) [17]): Active; Activity [2]: Non-Toxic; inhibition (Tubulin (Homo sapiens) [18]): Active; inhibition (Tubulin (Homo sapiens) [19]): Active; Activity [5]: Non-Toxic; inhibition (Tubulin (Homo sapiens) [20]): Active; Activity [6]: Non-Toxic; Activity [7]: Non-Toxic; inhibition (Tubulin (Homo sapiens) [21]): Active; Activity (SW-620 [8]): 4%; Activity [22]: Toxic; Activity [9]: Non-Toxic; Activity (COLO357 [10]): 2%; Activity (SW-620 [11]): 12%; Activity (SW-620 [12]): 76%; Activity (COLO357 [13]): 77%
3 | C=CC(=O)Oc1cc2c(cc1I)-c1c(cc(OC)c(OC)c1OC)CC[C@@H]2NC(C)=O | – | – | 30 | 32 | – | 150 | 158 | –
4 | CC/C=C1/COc2cc3c(cc21)-c1c(cc(OC)c(OC)c1OC)CC[C@@H]3NC(C)=O | 135 | 80 | 810 | 90 | 150 | 800 | 166 | –
5 | COC(=O)/C=C/c1cc2c(cc1O)[C@@H](NC(C)=O)CCc1cc(OC)c(OC)c(OC)c1-2 | – | – | > 4000 | > 4000 | – | > 4000 | > 4000 | –
6 | COc1cc2c(c(OC)c1OC)-c1cc3c(cc1[C@@H](NC(C)=O)CC2)OCC3=C(C)C | 390 | 850 | 780 | 420 | 410 | 860 | 400 | –
7 | COc1cc2c(c(OC)c1OC)-c1cc3c(cc1[C@@H](NC(C)=O)CC2)OC/C3=C(\C)CCC=C(C)C | 4500 | 810 | > 20000 | 800 | 4250 | 4330 | 4280 | –
8 | COc1cc2c(c(OC)c1OC)-c1cc(I)c(OC(=O)C=C(C)C)cc1[C@@H](NC(C)=O)CC2 | – | – | 32 | 160 | – | 160 | 805 | –
9 | COc1cc2c(c(OC)c1OC)-c1cc3c(C)cc(=O)oc3cc1[C@@H](NC(C)=O)CC2 | – | – | 140 | 16 | – | 160 | 32 | –
10 | COc1cc2c(c(OC)c1OC)-c1cc3c(C)coc3cc1[C@@H](NC(C)=O)CC2 | 0.5 | 2.1 | 1.3 | 1.3 | 0.8 | 1.3 | 5 | –
11 | COC(=O)Cc1coc2cc3c(cc12)-c1c(cc(OC)c(OC)c1OC)CC[C@@H]3NC(C)=O | 810 | 820 | 4100 | 3900 | 805 | 830 | 4420 | –
12 | COc1cc2c(c(OC)c1OC)-c1cc(I)c(OC(=O)/C=C/Cl)cc1[C@@H](NC(C)=O)CC2 | – | – | 800 | 825 | – | 810 | 810 | –
13 | COc1cc2c(c(OC)c1OC)-c1cc(I)c(OC(=O)/C=C/C(F)(F)F)cc1[C@@H](NC(C)=O)CC2 | – | – | 6 | 180 | – | 30 | 170 | –
14 | COc1cc(-c2cc(=O)oc3cc4c(cc23)-c2c(cc(OC)c(OC)c2OC)CC[C@@H]4NC(C)=O)ccc1O | – | – | 160 | 837 | – | 870 | 4000 | –
15 | COc1cc2c(c(OC)c1OC)-c1cc3c(cc1[C@@H](NC(C)=O)CC2)OC/C3=C\c1ccccc1 | 4370 | > 20000 | > 20000 | 4600 | 4020 | > 20000 | > 20000 | –
16 | C/C=C1/COc2cc3c(cc21)-c1c(cc(OC)c(OC)c1OC)CC[C@@H]3NC(C)=O | 14 | 32 | 6 | 3.8 | 32 | 5 | 3.8 | –
17 | C/C=C/C(=O)Oc1cc2c(cc1I)-c1c(cc(OC)c(OC)c1OC)CC[C@@H]2NC(C)=O | – | – | 4 | 139 | – | 161 | > 4000 | –
18 | C=C1c2cc3c(cc2OC1(F)F)[C@@H](NC(C)=O)CCc1cc(OC)c(OC)c(OC)c1-3 | 0.03 | 0.01 | 0.04 | 0.05 | 0.03 | 0.02 | 0.03 | LD50 [16]: > 10 mg/kg; Activity [2]: Non-Toxic; Activity [5]: Non-Toxic; Activity [6]: Non-Toxic; Activity [7]: Non-Toxic; Activity [9]: Non-Toxic
